Values quoted from earlier work, collected in paper PMC3473115 (Accounts of chemical research, 2012).

Test system: HIV-1 gp41
Settings: read-out: CCF IC50; cell-cell fusion assay

Substance: H2N-Trp-[Trp]-Leu-OH [compound 5]
- IC50: 5 µM
